Test results as given in patent US20050176775A1, “Substituted pyridinones” (priority 2003, published 2005).

Compound	melting point [°C]
Cc1c(OCc2ccc(F)cc2F)ccn(Cc2cccc(F)c2)c1=O [Example 129, 4-(2,4-Difluorobenzyloxy)-1-(3-fluorobenzyl)-3-methyl-1H-pyridin-2-one]	127 to 129
O=c1c(I)c(OCc2ccc(F)cc2F)ccn1Cc1cccc(F)c1 [Example 130, 4-(2,4-Difluorobenzyloxy)-1-(3-fluorobenzyl)-3-iodo-1H-pyridin-2-one]	164 to 167
O=c1c(Br)c(OCc2ccc(F)cc2)ccn1CC1CC1 [Example 59, 3-bromo-1-cyclopropylmethyl-4-(4-fluorobenzyloxy)-1H-pyridin-2-one]	139 to 141
NCc1cccc(Cn2ccc(OCc3ccc(F)cc3F)c(Br)c2=O)c1F [Example 104, 1-(3-aminomethyl-2-fluorobenzyl)-3-bromo-4-(2,4-difluorobenzyloxy)-1H-pyridin-2-one]	160 to 163
O=c1c(Br)c(SCc2ccccc2)ccn1Cc1ccccc1 [Example 46, 1-benzyl-4-[benzylthio]-3-bromopyridin-2(1H)-one]	180.6 to 182.1
O=c1cc(OCc2cccc(Cl)c2)ccn1Cc1ccccc1 [Example 45, 1-benzyl-4-[(3-chlorobenzyl)oxy]pyridin-2(1H)-one]	95.5 to 95.7
NC(=O)c1ccc(Cn2ccc(OCc3ccc(F)cc3F)c(Cl)c2=O)cc1 [Example 83, 4-[3-chloro-4-(2,4-difluorobenzyloxy)-2-oxo-2H-pyridin-1-ylmethyl]benzamide]	235 to 238
CS(=O)(=O)c1cccc(Cn2ccc(OCc3ccc(F)cc3F)c(Cl)c2=O)c1 [Example 81, 3-chloro-4-(2,4-difluorobenzyloxy)-1-[(3-methanesulfonyl)benzyl]-1H-pyridin-2-one]	155 to 157
NC(=O)c1cccc(Cn2ccc(OCc3ccc(F)cc3F)c(Cl)c2=O)c1F [Example 106, 3-[3-chloro-4-(2,4-difluorobenzyloxy)-2-oxo-2H-pyridin-1-ylmethyl]-2-fluoro-benzamide]	252 to 254
O=c1c(Br)c(OCc2ccccc2)ccn1CCc1ccsc1 [Example 29, 4-(benzyloxy)-3-bromo-1-(2-thien-3-ylethyl)pyridin-2(1H)-one]	134 to 134.3
O=c1c(Br)c(OCc2ccccc2)ccn1CCc1cccs1 [Example 30, 4-(benzyloxy)-3-bromo-1-(2-thien-2-ylethyl)pyridin-2(1H)-one]	128 to 129.5
O=C(O)C(F)(F)F.O=c1c(Cl)c(OCc2ccc(F)cc2F)ccn1Cc1cccc2cnccc12	235 to 238
NCCc1cccc(Cn2ccc(OCc3ccc(F)cc3F)c(Br)c2=O)c1.O=C(O)C(F)(F)F	70 to 74
O=c1cc(OCc2c(Cl)cccc2Cl)ccn1Cc1ccccc1 [Example 40, 1-benzyl-4-[2,6-(dichlorobenzyl)oxy]pyridin-2(1H)-one]	151.6 to 152
COC(=O)c1cccc(Cn2ccc(OCc3ccc(F)cc3F)c(Cl)c2=O)c1F [Example 105, Methyl 3-[3-chloro-4-(2,4-difluorobenzyloxy)-2-oxo-2H-pyridin-1-ylmethyl]-2-fluoro-benzoate]	171 to 174
N#Cc1ccccc1Cn1ccc(OCc2ccc(F)cc2F)c(Br)c1=O [Example 98, 2-[3-bromo-4-(2,4-difluorobenzyloxy)-2-oxo-2H-pyridin-1-ylmethyl]benzonitrile]	194 to 197
O=c1c(Br)c(OCc2ccccc2C(F)(F)F)ccn1Cc1ccccc1 [Example 47, 1-benzyl-3-bromo-4-{[2-(trifluoromethyl)benzyl]oxy}pyridin-2(1H)-one]	133.2 to 133.5
CN(C)Cc1ccc(Cn2ccc(OCc3ccc(F)cc3F)c(Br)c2=O)cc1 [Example 74, 3-bromo-4-(2,4-difluorobenzyloxy)-1-[(4-dimethylaminomethyl)benzyl]-1H-pyridin-2-one]	111 to 113
Cc1c(OCc2ccc(F)cc2F)cc(C)n(C2CCCCC2)c1=O [Example 132, 1-cyclohexyl-4-(2,4-difluorobenzyloxy)-3,6-dimethyl-1H-pyridin-2-one]	118 to 120
Br.Cn1ccc(OCc2ccccc2)c(Br)c1=O [Example 22, 4-(benzyloxy)-3-bromo-1-methylpyridin-2(1H)-one Hydrobromide]	105.3 to 105.6
O=c1c(Br)c(OCc2ccccc2Cl)ccn1Cc1ccccc1 [Example 43, 1-benzyl-3-bromo-4-[(2-chlorobenzyl)oxy]pyridin-2(1H)-one]	143.3 to 145.5
NC(=NO)c1ccc(Cn2ccc(OCc3ccccc3)c(Br)c2=O)cc1 [Example 24, 4-{[4-(benzyloxy)-3-bromo-2-oxopyridin-1(2H)-yl]methyl}-N′-hydroxybenzenecarboximidamide]	210.2 to 212.2
O=c1c(Cl)c(OCc2ccc(F)cc2F)ccn1Cc1ccc2[nH]ccc2c1 [Example 86, 3-chloro-4-(2,4-difluorobenzyloxy)-1-(1H-indol-5-ylmethyl)-1H-pyridin-2-one]	152 to 153
NC(=O)Cc1ccccc1Cn1ccc(OCc2ccc(F)cc2F)c(Br)c1=O [Example 126, 2-{2-[3-Bromo-4-(2,4-difluorobenzyloxy)-2-oxo-2H-pyridin-1-ylmethyl]-phenyl}acetamide]	178 to 183
O=c1c(Br)c(OCc2ccc(F)c(F)c2F)ccn1Cc1cccc(F)c1 [Example 108, 3-bromo-1-(3-fluorobenzyl)-4-(2,3,4-trifluorobenzyloxy)-1H-pyridin-2-one]	176 to 178
NC(=O)c1ccc(Cn2ccc(OCc3ccc(F)cc3F)c(Br)c2=O)cc1 [Example 103, 4-[3-bromo-4-(2,4-difluorobenzyloxy)-2-oxo-2H-pyridin-1-ylmethyl]benzamide]	235 to 238
CC(C)NCc1ccc(Cn2ccc(OCc3ccc(F)cc3F)c(Cl)c2=O)cc1 [Example 80, 3-chloro-4-(2,4-difluorobenzyloxy)-1-[4-(isopropylaminomethyl)benzyl]-1H-pyridin-2-one]	146 to 151
Cl.O=c1c(Br)c(OCc2ccccc2)ccn1CC1CCNCC1 [Example 25, 4-(benzyloxy)-3-bromo-1-(piperidin-4-ylmethyl)pyridin-2(1H)-one Hydrochloride]	207.9
Cl.O=c1c(Br)c(OCc2ccccc2)ccn1CC1CCCNC1 (stereo not drawn)	138.1 to 139.2

Further lines, results first:

melting point [°C]	Compound
149 to 149.7	Cc1ccc(COc2ccn(Cc3ccccc3)c(=O)c2Br)cc1 [Example 44, 1-benzyl-3-bromo-4-[(4-methylbenzyl)oxy]pyridin-2(1H)-one]
103 to 107	CN(C)Cc1cccc(Cn2ccc(OCc3ccc(F)cc3F)c(Br)c2=O)c1 [Example 76, 3-bromo-4-(2,4-difluorobenzyloxy)-1-[(3-dimethylaminomethyl)benzyl]-1H-pyridin-2-one]
127 to 139	NCc1cccc(Cn2ccc(OCc3ccc(F)cc3)c(Br)c2=O)c1.O=C(O)C(F)(F)F
136 to 139	COC(=O)c1ccc(Cn2ccc(OCc3ccc(F)cc3F)c(Br)c2=O)cc1 [Example 101, Methyl 4-[3-Bromo-4-(2,4-difluorobenzyloxy)-2-oxo-2H-pyridin-1-ylmethyl]-benzoate]
109 to 110	CC(C)NCc1cccc(Cn2ccc(OCc3ccc(F)cc3F)c(Br)c2=O)c1 [Example 75, 3-bromo-4-(2,4-difluorobenzyloxy)-1-[3-(isopropylaminomethyl)benzyl]-1H-pyridin-2-one]
150.4 to 151.2	Cc1ccc(Cn2ccc(OCc3ccccc3)c(Br)c2=O)cc1 [Example 2, 4-(benzyloxy)-3-bromo-1-(4-methylbenzyl)pyridin-2(1H)-one]
80 to 84	NCc1cccc(Cn2ccc(OCc3ccc(F)cc3F)c(Br)c2=O)c1.O=C(O)C(F)(F)F
164 to 167	NC(=O)Cc1cccc(Cn2ccc(OCc3ccc(F)cc3F)c(Br)c2=O)c1 [Example 128, 2-{3-[3-Bromo-4-(2,4-difluorobenzyloxy)-2-oxo-2H-pyridin-1-ylmethyl]phenyl}acetamide]
120 to 121	N#CCc1cccc(Cn2ccc(OCc3ccc(F)cc3F)c(Br)c2=O)c1 [Example 97, {3-[3-bromo-4-(2,4-difluorobenzyloxy)-2-oxo-2H-pyridin-1-ylmethyl]-phenyl}acetonitrile]
80 to 84	CC(C)(C)OC(=O)NCc1cccc(Cn2ccc(OCc3ccc(F)cc3F)c(Br)c2=O)c1 [Example 78, {3-[3-bromo-4-(2,4-difluorobenzyloxy)-2-oxo-2H-pyridin-1-ylmethyl]benzyl}carbamic Acid Tert-Butyl Ester]
115 to 117	COC(=O)c1cccc(Cn2ccc(OCc3ccc(F)cc3F)c(Br)c2=O)c1 [Example 100, Methyl 3-[3-Bromo-4-(2,4-difluorobenzyloxy)-2-oxo-2H-pyridin-1-ylmethyl]benzoate]
136 to 138	CC(C)(C)OC(=O)NCc1cccc(Cn2ccc(OCc3ccc(F)cc3)c(Br)c2=O)c1 [Example 70, {3-[3-bromo-4-(4-fluorobenzyloxy)-2-oxo-2H-pyridin-1-ylmethyl]benzyl}carbamic Acid Tert-Butyl Ester]
107 to 111	CNCc1cccc(Cn2ccc(OCc3ccc(F)cc3F)c(Br)c2=O)c1 [Example 77, 3-Bromo-4-(2,4-difluorobenzyloxy)-1-[(3-methylaminomethyl)benzyl]-1H-pyridin-2-one]
161 to 165	COC(=O)c1ccccc1Cn1ccc(OCc2ccc(F)cc2)c(Br)c1=O [Example 72, methyl 2-[3-Bromo-4-(4-fluorobenzyloxy)-2-oxo-2H-pyridin-1-ylmethyl]benzoate]
198 to 201	NC(=O)c1cccc(Cn2ccc(OCc3ccc(F)cc3F)c(Br)c2=O)c1 [Example 102, 3-[3-bromo-4-(2,4-difluorobenzyloxy)-2-oxo-2H-pyridin-1-ylmethyl]benzamide]
172 to 174	O=c1c(Br)c(OCc2ccc(F)c(F)c2)ccn1Cc1cccc(F)c1 [Example 112, 3-bromo-4-(3,4-difluorobenzyloxy)-1-(3-fluorobenzyl)-1H-pyridin-2-one]
